Settings: in water

O=C(O)c1cc(O)c(O)c(O)c1
Settings	solubility (mole fraction)
298 K	0.00158
303 K	0.00176
308 K	0.00203
313 K	0.00248
318 K	0.00311
323 K	0.00433
328 K	0.00557
333 K	0.00712
338 K	0.00898
343 K	0.0126
